Source: ChEMBL document CHEMBL3885881, “DrugMatrix”

Species: Rattus norvegicus
Assay: DrugMatrix - Regimen: Daily Repeat
Type: toxicity, organism-based, Sprague-Dawley
Design: regimen Daily Repeat, gender Male, age 6-8 weeks
Conditions: in vivo, po, route oral GAVAGE, vehicle 100 % WATER; for ABSOLUTE BASOPHIL / ABSOLUTE EOSINOPHIL / ABSOLUTE LYMPHOCYTE / ABSOLUTE MONOCYTE / ABSOLUTE SEGMENTED NEUTROPHIL / BASOPHIL / EOSINOPHIL / ERYTHROCYTE COUNT / HEMATOCRIT / HEMOGLOBIN / LEUKOCYTE COUNT / LYMPHOCYTE / MEAN CORPUSCULAR HEMOGLOBIN / MEAN CORPUSCULAR HEMOGLOBIN CONCENTRATION / MEAN CORPUSCULAR VOLUME / MONOCYTE / NEUTROPHIL / NUCLEATED RED BLOOD CELLS / PLATELET COUNT: tissue Blood; for ALANINE AMINOTRANSFERASE / ALBUMIN / ALKALINE PHOSPHATASE / ASPARTATE AMINOTRANSFERASE / BLOOD UREA NITROGEN / CARBON DIOXIDE / CHLORIDE / CHOLESTEROL / CREATINE PHOSPHOKINASE / CREATININE / GLUCOSE / LACTATE DEHYDROGENASE / LIPASE / PHOSPHORUS / POTASSIUM / SODIUM / TOTAL BILIRUBIN / TOTAL PROTEIN / URIC ACID: tissue Plasma
[1] = 200 mg/kg, 120 h, dose level Low, time 5 day
[2] = 2625 mg/kg, 72 h, dose level High, time 3 day
[3] = 2625 mg/kg, 120 h, dose level High, time 5 day

In the case of `O=C(O)c1cccnc1` [NIACIN], the “ABSOLUTE BASOPHIL” value [1] is reported as 0 CELLS/uL, the “ABSOLUTE EOSINOPHIL” value [1] is reported as 0 CELLS/uL and the “ABSOLUTE LYMPHOCYTE” value [1] is reported as 13805.67 CELLS/uL. For the same molecule, the “ABSOLUTE MONOCYTE” value [1] was 0 CELLS/uL, the “ABSOLUTE SEGMENTED NEUTROPHIL” value [1] was 1394.33 CELLS/uL and the BASOPHIL [1] was 0%. For the same molecule, the EOSINOPHIL [1] was 0%, the “ERYTHROCYTE COUNT” value [1] was 5.57 x10E6/uL and the HEMATOCRIT [1] was 34.77%. For the same molecule, the HEMOGLOBIN [1] was 13.77 G/DL, the “LEUKOCYTE COUNT” value [1] was 15.2 x10E3/uL and the LYMPHOCYTE [1] was 91%. For the same molecule, the “MEAN CORPUSCULAR HEMOGLOBIN” value [1] was 24.73 pg, the “MEAN CORPUSCULAR HEMOGLOBIN CONCENTRATION” value [1] was 39.57 G/DL and the “MEAN CORPUSCULAR VOLUME” value [1] was 62.53 fL. The MONOCYTE [1] was 0%, the NEUTROPHIL [1] was 9% and the “NUCLEATED RED BLOOD CELLS” value [1] was 0.33 /100WBC. The “PLATELET COUNT” value [1] was 1180.67 x10E3/uL, the “ALANINE AMINOTRANSFERASE” value [1] was 55.33 u/L and the ALBUMIN [1] was 4.03 G/DL. The “ALKALINE PHOSPHATASE” value [1] was 296.33 u/L, the “ASPARTATE AMINOTRANSFERASE” value [1] was 77.67 u/L and the “BLOOD UREA NITROGEN” value [1] was 12.67 mg/dL. The “CARBON DIOXIDE” value [1] was 31.33 mmol/L, the CHLORIDE [1] was 101.67 MEQ/L and the CHOLESTEROL [1] was 76.33 mg/dL. The “CREATINE PHOSPHOKINASE” value [1] was 209 u/L, the CREATININE [1] was 0.23 mg/dL and the GLUCOSE [1] was 140 mg/dL. The “LACTATE DEHYDROGENASE” value [1] was 212 u/L, the LIPASE [1] was 13 u/L and the PHOSPHORUS [1] was 12.63 mg/dL. For the same molecule, the POTASSIUM [1] was 6.55 MEQ/L, the SODIUM [1] was 145.13 MEQ/L and the “TOTAL BILIRUBIN” value [1] was 0.13 mg/dL. The “TOTAL PROTEIN” value [1] was 5.93 G/DL, the “URIC ACID” value [1] was 1.43 mg/dL and the “ABSOLUTE BASOPHIL” value [2] was 0 CELLS/uL. The “ABSOLUTE EOSINOPHIL” value [2] was 135 CELLS/uL, the “ABSOLUTE LYMPHOCYTE” value [2] was 10224 CELLS/uL and the “ABSOLUTE MONOCYTE” value [2] was 258 CELLS/uL. The “ABSOLUTE SEGMENTED NEUTROPHIL” value [2] was 1683 CELLS/uL, the BASOPHIL [2] was 0% and the EOSINOPHIL [2] was 1%. For the same molecule, the “ERYTHROCYTE COUNT” value [2] was 5.89 x10E6/uL, the HEMATOCRIT [2] was 36.17% and the HEMOGLOBIN [2] was 14.27 G/DL. For the same molecule, the “LEUKOCYTE COUNT” value [2] was 12.3 x10E3/uL, the LYMPHOCYTE [2] was 84% and the “MEAN CORPUSCULAR HEMOGLOBIN” value [2] was 24.23 pg. For the same molecule, the “MEAN CORPUSCULAR HEMOGLOBIN CONCENTRATION” value [2] was 39.43 G/DL, the “MEAN CORPUSCULAR VOLUME” value [2] was 61.33 fL and the MONOCYTE [2] was 2%. For the same molecule, the NEUTROPHIL [2] was 13%, the “NUCLEATED RED BLOOD CELLS” value [2] was 0.33 /100WBC and the “PLATELET COUNT” value [2] was 1326 x10E3/uL. For the same molecule, the “ALANINE AMINOTRANSFERASE” value [2] was 45 u/L, the ALBUMIN [2] was 3.73 G/DL and the “ALKALINE PHOSPHATASE” value [2] was 269.33 u/L. For the same molecule, the “ASPARTATE AMINOTRANSFERASE” value [2] was 105 u/L, the “BLOOD UREA NITROGEN” value [2] was 15 mg/dL and the “CARBON DIOXIDE” value [2] was 29 mmol/L. The CHLORIDE [2] was 100.33 MEQ/L, the CHOLESTEROL [2] was 68.67 mg/dL and the “CREATINE PHOSPHOKINASE” value [2] was 532.33 u/L. The CREATININE [2] was 0.18 mg/dL, the GLUCOSE [2] was 145.67 mg/dL and the “LACTATE DEHYDROGENASE” value [2] was 900 u/L. The LIPASE [2] was 11.33 u/L, the PHOSPHORUS [2] was 12.33 mg/dL and the POTASSIUM [2] was 6.2 MEQ/L. The SODIUM [2] was 144.73 MEQ/L, the “TOTAL BILIRUBIN” value [2] was 0.13 mg/dL and the “TOTAL PROTEIN” value [2] was 5.57 G/DL. For the same molecule, the “URIC ACID” value [2] was 1.47 mg/dL, the “ABSOLUTE BASOPHIL” value [3] was 0 CELLS/uL and the “ABSOLUTE EOSINOPHIL” value [3] was 0 CELLS/uL. For the same molecule, the “ABSOLUTE LYMPHOCYTE” value [3] was 15227.67 CELLS/uL, the “ABSOLUTE MONOCYTE” value [3] was 166 CELLS/uL and the “ABSOLUTE SEGMENTED NEUTROPHIL” value [3] was 1206.33 CELLS/uL. For the same molecule, the BASOPHIL [3] was 0%, the EOSINOPHIL [3] was 0% and the “ERYTHROCYTE COUNT” value [3] was 5.68 x10E6/uL. The HEMATOCRIT [3] was 36.37%, the HEMOGLOBIN [3] was 14.23 G/DL and the “LEUKOCYTE COUNT” value [3] was 16.6 x10E3/uL. The LYMPHOCYTE [3] was 91.67%, the “MEAN CORPUSCULAR HEMOGLOBIN” value [3] was 25.07 pg and the “MEAN CORPUSCULAR HEMOGLOBIN CONCENTRATION” value [3] was 39.17 G/DL. For the same molecule, the “MEAN CORPUSCULAR VOLUME” value [3] was 64 fL, the MONOCYTE [3] was 1% and the NEUTROPHIL [3] was 7.33%. The “NUCLEATED RED BLOOD CELLS” value [3] was 0.33 /100WBC, the “PLATELET COUNT” value [3] was 1260.67 x10E3/uL and the “ALANINE AMINOTRANSFERASE” value [3] was 55 u/L. For the same molecule, the ALBUMIN [3] was 4.07 G/DL, the “ALKALINE PHOSPHATASE” value [3] was 397.33 u/L and the “ASPARTATE AMINOTRANSFERASE” value [3] was 96 u/L. For the same molecule, the “BLOOD UREA NITROGEN” value [3] was 16.67 mg/dL, the “CARBON DIOXIDE” value [3] was 32.33 mmol/L and the CHLORIDE [3] was 100.67 MEQ/L. For the same molecule, the CHOLESTEROL [3] was 55.33 mg/dL, the “CREATINE PHOSPHOKINASE” value [3] was 323.67 u/L and the CREATININE [3] was 0.2 mg/dL. For the same molecule, the GLUCOSE [3] was 151 mg/dL, the “LACTATE DEHYDROGENASE” value [3] was 666 u/L and the LIPASE [3] was 10.33 u/L. For the same molecule, the PHOSPHORUS [3] was 11.7 mg/dL, the POTASSIUM [3] was 6.01 MEQ/L and the SODIUM [3] was 145.9 MEQ/L. For the same molecule, the “TOTAL BILIRUBIN” value [3] was 0.27 mg/dL, the “TOTAL PROTEIN” value [3] was 5.7 G/DL and the “URIC ACID” value [3] was 1.43 mg/dL.
